Assay [1] relates to MCF-7 Tet-Off/ACSL4 cells. The experiment in a line: BrdU incorporation cell proliferation assay in MCF-7 Tet-Off/ACSL4 cells. It is filed as cell-based, human. As for the experimental part:
(§1) MCF-7 Tet-Off empty vector and MCF-7 Tet-Off/ACSL4 cells were plated at a density of 4000 cells/well in 96-well plates with 10% FBS-supplemented D-MEM medium and allowed to adhere overnight at 37° C. in a humidified, 5% CO2 atmosphere. The medium was then changed to serum-free medium. After 24 h, the cells were switched to 10% FBS-supplemented D-MEM medium and incubated with rapamycin (10 nM) and/or rosiglitazone (75 μM) for 96 h. Subsequently, cell proliferation was measured by the bromo-deoxyuridine (BrdU) incorporation assay.
Following the same procedure as that described in Example 1 above, the cells were switched to 10% FBS-supplemented D-MEM medium and incubated with rosiglitazone (10 or 25 μM) and/or 4-hydroxytamoxifen (4-OHTAM, 2.5 or 5.0 μM). Both rosiglitazone and 4-hydroxytamoxifen were tested alone at each of the concentrations used, and in all the possible combinations with each other (see FIG. 6A).
For orientation: Incorporation of labelled thymidine or its analogues reports DNA synthesis.

Assay [2] has as its system MCF-7 Tet-Off empty vector cells. Kind of assay: BrdU incorporation cell proliferation assay in MCF-7 Tet-Off empty vector cells. It is filed as cell-based. Conditions: Homo sapiens, MCF7, 96 h, vs control cells. As for the experimental part:
as §1

This is an account of results in patent US9737515B2, “Compositions and methods for inhibiting tumor growth” (Consejo Nacional De Investigaciones Cientificas Y Tecnicas …, priority 2015, dated 2017).

With 4-hydroxytamoxifen [4-OHT], the “% inhibition of cell proliferation” value in assay [1] (4-OHT 2.5 μM, 96 h) came out at 0.802%; in assay [1] (4-OHT 5 μM, 96 h) it was 3.464%. Also, in assay [1] (rosiglitazone 10 or 25 μM and/or 4-OHTAM 2.5 or 5 μM, 96 h, FIG. 6A), the “inhibition of cell proliferation (in words)” value is “did not produce a significant inhibition”.

As to `CO[C@H]1C[C@@H]2CC[C@@H](C)[C@@](O)(O2)C(=O)C(=O)N2CCCC[C@H]2C(=O)O[C@H]([C@H](C)C[C@@H]2CC[C@@H](O)[C@H](OC)C2)CC(=O)[C@H](C)/C=C(\C)[C@@H](O)[C@@H](OC)C(=O)[C@H](C)C[C@H](C)/C=C/C=C/C=C/1C` [Rapamycin], the inhibition (usually the percentage by which the read-out fell short of the control) at 0.01 µM turned out to be 25% in assay [1] (Homo sapiens, MCF7, 96 h, Rapamycin 10 nM, vs control cells) and 12.2% in assay [2] (Rapamycin 10 nM). Further, the “% inhibition of cell proliferation” value in assay [1] (Rapamycin 10 nM, 96 h, vs control cells) is reported as 22.159%.

Consider `CN(CCOc1ccc(CC2SC(=O)NC2=O)cc1)c1ccccn1` (stereo not shown) [Rosiglitazone], for which the inhibition at 10 µM in assay [1] (Homo sapiens, MCF7, 96 h, Rosiglitazone 10 μM) was 1.88%. Besides, the inhibition at 25 µM in assay [1] (Homo sapiens, MCF7, 96 h, Rosiglitazone 25 μM) was determined as 7.97%. The inhibition at 75 µM in assay [1] (Homo sapiens, MCF7, 96 h, Rosiglitazone 75 μM, vs control cells) worked out at 28.5%; in assay [2] (Rosiglitazone 75 μM), 2.81%.
